Legend:
[1] = target: T1, CYP2A6 (Homo sapiens, UniProt P11509); assay: Time-dependent inhibition screen, recombinant CYP2A6 system, coumarin hydroxylase readout; conditions: for time-dependent inhibition of CYP2A6, result in words: with NADPH, 7-hydroxycoumarin formation; for Fold difference (with respect to CA): kinact/kI relative to t-CA
T1 sequence (P11509 1-494): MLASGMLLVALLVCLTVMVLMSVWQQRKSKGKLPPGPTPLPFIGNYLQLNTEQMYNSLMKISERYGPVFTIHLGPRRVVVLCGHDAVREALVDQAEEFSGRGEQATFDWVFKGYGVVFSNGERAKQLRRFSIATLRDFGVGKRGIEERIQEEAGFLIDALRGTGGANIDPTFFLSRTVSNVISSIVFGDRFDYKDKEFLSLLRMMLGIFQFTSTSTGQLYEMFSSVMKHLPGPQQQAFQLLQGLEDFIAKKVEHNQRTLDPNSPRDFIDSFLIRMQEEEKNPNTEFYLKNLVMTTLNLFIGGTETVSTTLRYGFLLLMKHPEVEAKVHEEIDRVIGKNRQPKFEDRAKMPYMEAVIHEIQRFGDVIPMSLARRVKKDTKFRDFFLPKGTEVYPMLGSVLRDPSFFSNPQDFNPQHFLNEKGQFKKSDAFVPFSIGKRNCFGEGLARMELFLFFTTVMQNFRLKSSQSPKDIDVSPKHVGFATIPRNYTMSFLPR
From the text: (§1) Since this type of inhibition also requires that the inhibitor is initially metabolized by the target enzyme, MBIs may be identified by evaluating the inhibition in the presence and absence of cofactors that are required for activity, such as NADPH for CYPs.

[2] = target: T1, CYP2A6; assay: in vitro; conditions: recombinant CYP2A6, probe coumarin
From the text: as §1

[3] = target: T1, CYP2A6; assay: biochemical
From the text: as §1

[4] = target: T1, CYP2A6; assay: biochemical; remark: listed apart in the source
From the text: (§2) A 96-well plate assay and fluorescence spectroscopy may be used to quantify the product, 7-hydroxycoumarin.
Data was fit using GraphPad Prism.

[5] = target: T1, CYP2A6; assay: IC50 for inhibition of CYP2A6, coumarin hydroxylase activity (7-hydroxycoumarin fluorescence); conditions: Table 1B, structural analogs of CA
From the text: as §2
Data was fit using GraphPad Prism.

[6] = target: T2, CYP2A6 (Homo sapiens, UniProt P11509, K28S/Q25K/Q26K/R27T/W24A); assay: Spectral ligand binding (KS) to purified CYP2A6 expressed in Escherichia coli; conditions: read-out: Ks
T2 sequence (P11509 with tags, fused parts or gaps limits assumed): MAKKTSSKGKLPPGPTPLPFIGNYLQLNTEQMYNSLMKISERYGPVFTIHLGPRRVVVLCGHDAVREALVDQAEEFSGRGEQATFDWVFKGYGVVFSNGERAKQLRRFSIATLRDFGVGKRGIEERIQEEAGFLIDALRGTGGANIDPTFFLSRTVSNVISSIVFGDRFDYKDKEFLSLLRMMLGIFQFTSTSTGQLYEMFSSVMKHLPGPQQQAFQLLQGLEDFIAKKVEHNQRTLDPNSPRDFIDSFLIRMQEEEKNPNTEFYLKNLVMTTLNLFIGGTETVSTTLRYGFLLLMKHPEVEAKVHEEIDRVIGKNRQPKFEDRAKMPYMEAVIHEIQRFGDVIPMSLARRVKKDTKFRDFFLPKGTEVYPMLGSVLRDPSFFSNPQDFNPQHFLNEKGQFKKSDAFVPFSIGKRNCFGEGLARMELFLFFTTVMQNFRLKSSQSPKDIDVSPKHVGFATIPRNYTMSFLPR
Method: (§3) Spectral binding studies were conducted using purified heterologously expressed CYP2A6 in Escherichia coli. […] Absorbance changes (A386-A418) may be plotted against added ligand concentrations in order to determine dissociation constants.
(§4) In more detail, the CYP2A6 enzyme may be heterologously expressed in Escherichia coli and purified. The expression vector, pKK2A6dH may be used to express the enzyme. The vector contains a cDNA sequence that codes for human CYP2A6 with a deletion of the N-terminal transmembrane sequence, an alteration of several residues at the modified N-terminus to increase expression, and four histidine residues added at the C-terminus to aid in purification. […] Expression from the vector may be induced with the addition of IPTG to bacterial cultures. δ-Aminolevulinic acid is added during expression to supplement heme biosynthesis. The enzyme may be purified following previously reported protocols. Briefly, following cell disruption, the solubilized enzyme may be purified using Ni^2+-affinity chromatography and cation-exchange (CM sepharose) chromatography, which may lead to protein of high purity and P450 content.

[7] = target: T2, CYP2A6; assay: biochemical
Method: as §3, §4

With `O=C/C=C/c1ccccc1O` [2-hydroxy-t-CA] the “time-dependent inhibition of CYP2A6, result in words” value (from here on “time-dependent inhibition of CYP2A6”) [1] was “not to be time-dependent inhibitors”.

For `Cc1ccccc1C=CC=O` [2-methyl-CA], the “time-dependent inhibition of CYP2A6” value [1] was “not to be time-dependent inhibitors”.

With `O=CC=Cc1cccc([N+](=O)[O-])c1` [3-nitro-CA, 3-nitrocinnamaldehyde] the kinact [2] was 0.00138 s⁻¹, the kinact/KI [2] was 15.5 M⁻¹ s⁻¹ and the Ki [3] was 89.6 µM. The “Fold difference (with respect to CA)” value [1] was 0.65 and the IC50 [4] was 410 µM.

For `O=C/C=C/c1ccc(Br)cc1` [4-bromo-CA], the IC50 [5] was 58.1 µM.

Work on `O=C/C=C/c1ccc(Cl)cc1` [4-chloro-CA] yielded a Kd [6] of 48.9 µM and an IC50 [5] of 30.1 µM.

`CCN(CC)c1ccc(/C=C/C=O)cc1` [4-diethylamino-CA] showed an IC50 [5] of 451 µM.

`CN(C)c1ccc(/C=C/C=O)cc1` [4-dimethylamino-CA] gave an IC50 [5] of 100 µM.

In the case of `O=C/C=C/c1ccc(F)cc1` [4-fluoro-CA], the IC50 [5] is reported as 30.1 µM.

Compound `O=CC=Cc1ccc([N+](=O)[O-])cc1` [4-nitro-CA, 4-nitrocinnamaldehyde] has a kinact [2] of 0.00065 s⁻¹, a kinact/KI [2] of 7 M⁻¹ s⁻¹ and a Ki [3] of 92.1 µM. For the same compound, the “Fold difference (with respect to CA)” value [1] was 0.29 and the IC50 [4] was 308 µM.

`C/C(C=O)=C\c1ccc(C(C)(C)C)cc1` [4-t-butyl-α-methyl-CA] showed an IC50 [5] of 348 µM.

`ON=CC=Cc1ccccc1` [Cinnamaldehyde oxime] gave an IC50 [4] of 8 µM.

For `O=C(O)/C=C/c1ccccc1` [cinnamic acid, reference compound], the IC50 [4] was > 2500 µM.

`OC/C=C/c1ccccc1` [cinnamic alcohol, reference compound] showed an IC50 [4] of 354 ± 4.4 µM.

`N#CC=Cc1ccccc1` [cinnamonitrile] showed an IC50 [4] of 8.8 µM.

For `COc1ccccc1C=CC=O` [o-methoxycinnamaldehyde, 2-methoxycinnamaldehyde], the Kd [7] was 1.6 µM.

`CC(C=O)=Cc1ccccc1[N+](=O)[O-]` [o-nitro-α-methyl-CA, 2-nitro-α-methylcinnamaldehyde] showed a kinact [2] of 0.00405 s⁻¹, a kinact/KI [2] of 207 M⁻¹ s⁻¹ and a Ki [3] of 19.6 µM. The “Fold difference (with respect to CA)” value [1] was 8.7 and the “time-dependent inhibition of CYP2A6” value [1] was “more potent inhibitors than t-CA”.

In the case of `O=CC=Cc1ccccc1C(F)(F)F` [o-trifluoromethyl-CA, 2-trifluoromethylcinnamaldehyde], the kinact [2] is reported as 0.00237 s⁻¹, the kinact/KI [2] is reported as 45 M⁻¹ s⁻¹ and the Ki [3] is reported as 52.6 µM. For the same compound, the “Fold difference (with respect to CA)” value [1] was 1.9 and the “time-dependent inhibition of CYP2A6” value [1] was “more potent inhibitors than t-CA”.

For `CCCCC/C(C=O)=C/c1ccccc1` [α-amyl-CA], the IC50 [5] was 65 µM and the “time-dependent inhibition of CYP2A6” value [1] was “not to be time-dependent inhibitors”.

`CCCCC(C=O)=Cc1ccccc1` [α-butyl-CA] was tested, and the Kd [6] was 36.8 µM and the “time-dependent inhibition of CYP2A6” value [1] was “not to be time-dependent inhibitors”.

For `CCC(C=O)=Cc1ccccc1` [α-ethyl-CA], the Kd [6] was 3 µM and the “time-dependent inhibition of CYP2A6” value [1] was “not to be time-dependent inhibitors”.

`O=CC(F)=Cc1ccccc1` [α-fluoro-CA] was tested, and the “time-dependent inhibition of CYP2A6” value [1] was “not to be time-dependent inhibitors”.

In the case of `CCCCCC/C(C=O)=C\c1ccccc1` [α-hexyl-CA], the IC50 [5] is reported as 64.7 µM and the “time-dependent inhibition of CYP2A6” value [1] is reported as “not to be time-dependent inhibitors”.

With `CC(C)C(C=O)=Cc1ccccc1` [α-isopropyl-CA] the Kd [6] was 3.2 µM and the “time-dependent inhibition of CYP2A6” value [1] was “not to be time-dependent inhibitors”.

For `CC(C=O)=Cc1ccccc1` [α-methyl-CA, α-methyl-cinnamaldehyde], the Kd [7] was 6.8 µM, the “time-dependent inhibition of CYP2A6” value [1] was “not to be time-dependent inhibitors” and the “time-dependent inhibition of CYP2A6” value ([1]; listed as α-methyl-cinnamaldehyde) was “not be a time-dependent inhibitor of CYP2A6”. For the same compound, the IC50 [4] was 5.3 µM.

For `CCCC(C=O)=Cc1ccccc1` [α-propyl-CA], the Kd [6] was 7.8 µM and the “time-dependent inhibition of CYP2A6” value [1] was “not to be time-dependent inhibitors”.

`O=CC=C(c1ccccc1)c1ccccc1` [β-phenyl CA] was tested, and the IC50 [5] was 148 µM.

— patent publication US11865086B2, “Cinnamaldehyde derivative compounds and methods of use for cinnamaldehyde derivative compounds nicotine cessation” (Pacific University, priority 2018, dated 2024)
